Experiment [1] deals with Klebsiella pneumoniae. The experiment can be described thus: Antibacterial activity against Klebsiella pneumoniae assessed as zone of inhibition after 24 to 48 hrs by well diffusion method. The format is functional. On the technique in general: Agar diffusion results depend on both activity and mobility in agar.
The next experiment deals with Streptococcus pyogenes. The experiment is described as follows: Antibacterial activity against Streptococcus pyogenes assessed as zone of inhibition after 24 to 48 hrs by well diffusion method. The format is functional.
The subject of experiment [2] is Staphylococcus epidermidis. The experiment can be described thus: Antibacterial activity against Staphylococcus epidermidis assessed as zone of inhibition after 24 to 48 hrs by well diffusion method. The format is functional.
The subject of a further experiment is Staphylococcus aureus. The experiment can be described thus: Antibacterial activity against Staphylococcus aureus assessed as zone of inhibition after 24 to 48 hrs by well diffusion method. The class given is functional.
The test system of experiment [3] is Serratia marcescens. The experiment can be described thus: Antibacterial activity against Serratia marcescens assessed as zone of inhibition after 24 to 48 hrs by well diffusion method. The format is functional.
In experiment [4] the test system is Pseudomonas aeruginosa. The experiment is described as follows: Antibacterial activity against Pseudomonas aeruginosa assessed as zone of inhibition after 24 to 48 hrs by well diffusion method. The format is functional.
In experiment [5] the test system is Escherichia coli. The experiment can be described thus: Antibacterial activity against Escherichia coli assessed as zone of inhibition after 24 to 48 hrs by well diffusion method. The format is functional.
The test system of experiment [6] is Leishmania major. The experiment can be described thus: Antileishmanial activity against Leishmania major promastigotes at 100 uM after 72 hrs by MTT assay relative to control. The class given is functional. (Tetrazolium assays rely on reduction of a dye to a coloured formazan, in cell work by metabolically active cells.)
In experiment [7] the test system is Leishmania major. The experiment can be described thus: Antileishmanial activity against Leishmania major promastigotes at 10 uM after 72 hrs by MTT assay relative to control. The class given is functional.
In experiment [8] the test system is Leishmania major. The experiment can be described thus: Antileishmanial activity against Leishmania major promastigotes at 1 uM after 72 hrs by MTT assay relative to control. The format is functional.
For experiment [9], the system named is Leishmania major. The experiment can be described thus: Antileishmanial activity against Leishmania major promastigotes at 0.1 uM after 72 hrs by MTT assay relative to control. The class given is functional.
Experiment [10] concerns NCI-H157. The experiment is described as follows: Cytotoxicity against human NCI-H157 cells at 100 uM after 48 hrs by sulforhodamine B assay. The format is functional. Background: Sulforhodamine B stains cellular protein and so reports cell mass.
Experiment [11] concerns NCI-H157. The experiment is described as follows: Cytotoxicity against human NCI-H157 cells at 10 uM after 48 hrs by sulforhodamine B assay. The format is functional.
Experiment [12] deals with NCI-H157. The experiment is described as follows: Cytotoxicity against human NCI-H157 cells at 1 uM after 48 hrs by sulforhodamine B assay. The format is functional.
The test system of experiment [13] is NCI-H157. The experiment can be described thus: Cytotoxicity against human NCI-H157 cells at 0.1 uM after 48 hrs by sulforhodamine B assay. The format is functional.
Experiment [14] has as its system Klebsiella pneumoniae. The experiment can be described thus: Antibacterial activity against Klebsiella pneumoniae assessed as zone of inhibition by measuring activity index after 24 to 48 hrs by well diffusion method relative to tetracycline. The class given is functional, organism-based.
The test system of experiment [15] is Klebsiella pneumoniae. The experiment can be described thus: Antibacterial activity against Klebsiella pneumoniae assessed as zone of inhibition by measuring activity index after 24 to 48 hrs by well diffusion method relative to ampicillin. The format is functional, organism-based.
Experiment [16] deals with Klebsiella pneumoniae. The experiment is described as follows: Antibacterial activity against Klebsiella pneumoniae assessed as zone of inhibition by measuring activity index after 24 to 48 hrs by well diffusion method relative to amoxicillin. The class given is functional, organism-based.
Experiment [17] has as its system Staphylococcus epidermidis. The experiment can be described thus: Antibacterial activity against Staphylococcus epidermidis assessed as zone of inhibition by measuring activity index after 24 to 48 hrs by well diffusion method relative to tetracycline. The class given is functional, organism-based.
In experiment [18] the test system is Staphylococcus epidermidis. The experiment is described as follows: Antibacterial activity against Staphylococcus epidermidis assessed as zone of inhibition by measuring activity index after 24 to 48 hrs by well diffusion method relative to amoxicillin. The format is functional, organism-based.
The subject of experiment [19] is Serratia marcescens. The experiment is described as follows: Antibacterial activity against Serratia marcescens assessed as zone of inhibition by measuring activity index after 24 to 48 hrs by well diffusion method relative to penicillin G. The class given is functional.
Experiment [20] has as its system Serratia marcescens. The experiment is described as follows: Antibacterial activity against Serratia marcescens assessed as zone of inhibition by measuring activity index after 24 to 48 hrs by well diffusion method relative to ampicillin. The format is functional.
The subject of experiment [21] is Serratia marcescens. The experiment is described as follows: Antibacterial activity against Serratia marcescens assessed as zone of inhibition by measuring activity index after 24 to 48 hrs by well diffusion method relative to amoxicillin. The class given is functional.
In experiment [22] the test system is Pseudomonas aeruginosa. The experiment is described as follows: Antibacterial activity against Pseudomonas aeruginosa assessed as zone of inhibition by measuring activity index after 24 to 48 hrs by well diffusion method relative to tetracycline. The format is functional, organism-based.
Experiment [23] concerns Pseudomonas aeruginosa. The experiment is described as follows: Antibacterial activity against Pseudomonas aeruginosa assessed as zone of inhibition by measuring activity index after 24 to 48 hrs by well diffusion method relative to penicillin G. The format is functional, organism-based.
Experiment [24] relates to Pseudomonas aeruginosa. The experiment is described as follows: Antibacterial activity against Pseudomonas aeruginosa assessed as zone of inhibition by measuring activity index after 24 to 48 hrs by well diffusion method relative to amoxicillin. The class given is functional, organism-based.
The test system of experiment [25] is Escherichia coli. The experiment can be described thus: Antibacterial activity against Escherichia coli assessed as zone of inhibition by measuring activity index after 24 to 48 hrs by well diffusion method relative to tetracycline. The class given is functional.
For experiment [26], the system named is NCI-H157. The experiment can be described thus: Cytotoxicity against human NCI-H157 cells after 48 hrs by sulforhodamine B assay. The format is functional, cell-based.
Experiment [27] concerns Pseudomonas aeruginosa. The experiment is described as follows: Antibacterial activity against Pseudomonas aeruginosa assessed as zone of inhibition by measuring activity index after 24 to 48 hrs by well diffusion method relative to ampicillin. The class given is functional, organism-based.

We go through eight molecules from ChEMBL document CHEMBL4138175, “Newly designed organotin(IV) carboxylates with peptide linkage: Synthesis, structural elucidation, physicochemical characterizations and pharmacological investigations” (Eur J Med Chem, 2018).

Calls of active or inactive are those of the source. No cut-off for these calls is given here.

Take `CC1(C)S[C@@H]2[C@H](NC(=O)[C@H](N)c3ccc(O)cc3)C(=O)N2[C@H]1C(=O)O` [AMOXICILLIN]: the “inhibition zone (IZ)” value is on record as 6 mm in the experiment on Klebsiella pneumoniae [1]; 0 mm in the experiment with Streptococcus pyogenes; 2 mm in experiment [2]; 0 mm with Staphylococcus aureus; 6 mm in the experiment on Serratia marcescens [3]; 6 mm in the experiment with Pseudomonas aeruginosa [4]. Also, the “inhibition zone (IZ)” value in the experiment on Escherichia coli [5] was 0 mm.

For `C[C@@H]1[C@H](O)[C@@H](C)/C=C/C=C/C=C/C=C/C=C/C=C/C=C/[C@H](O[C@@H]2O[C@H](C)[C@@H](O)[C@H](N)[C@@H]2O)C[C@@H]2O[C@](O)(C[C@@H](O)C[C@@H](O)[C@H](O)CC[C@@H](O)C[C@@H](O)CC(=O)O[C@H]1C)C[C@H](O)[C@H]2C(=O)O` [AMPHOTERICIN B], the Activity in the experiment on Leishmania major [6] is 79.8%; in the experiment on Leishmania major [7] it was 76.3%; in the experiment with Leishmania major [8], 74.8%; with Leishmania major [9], 69.9%.

For `CC1(C)S[C@@H]2[C@H](NC(=O)[C@H](N)c3ccccc3)C(=O)N2[C@H]1C(=O)O` [AMPICILLIN], the “inhibition zone (IZ)” value in the experiment on Klebsiella pneumoniae [1] is 6 mm; in the experiment with Streptococcus pyogenes, 0 mm; in [2] it was 0 mm; in the experiment on Staphylococcus aureus it was 0 mm; in the experiment on Serratia marcescens [3] it was 8 mm; with Pseudomonas aeruginosa [4], 0 mm. Moreover, in the experiment on Escherichia coli [5], the “inhibition zone (IZ)” value was 0 mm.

For the molecule `CC1(C)S[C@@H]2[C@H](NC(=O)Cc3ccccc3)C(=O)N2[C@H]1C(=O)O` [PENICILLIN G], the “inhibition zone (IZ)” value in the experiment on Klebsiella pneumoniae [1] was 0 mm; in the experiment on Streptococcus pyogenes, 0 mm; in [2], 0 mm; with Staphylococcus aureus it was 0 mm; with Serratia marcescens [3], 8 mm; in the experiment on Pseudomonas aeruginosa [4], 6 mm. For the same molecule, in the experiment on Escherichia coli [5], the “inhibition zone (IZ)” value is 0 mm.

In the case of `CN(C)[C@@H]1C(O)=C(C(N)=O)C(=O)[C@@]2(O)C(O)=C3C(=O)c4c(O)cccc4[C@@](C)(O)[C@H]3C[C@@H]12` [TETRACYCLINE], the “inhibition zone (IZ)” value was 14 mm in the experiment with Klebsiella pneumoniae [1]; 0 mm with Streptococcus pyogenes; 10 mm in experiment [2]; 0 mm in the experiment with Staphylococcus aureus; 0 mm in the experiment on Serratia marcescens [3]; 6 mm with Pseudomonas aeruginosa [4]. Moreover, in the experiment on Escherichia coli [5], the “inhibition zone (IZ)” value is 2 mm.

Consider “Dibenzylstannanediyl bis 2-(4-methoxy-2-nitrophenylcarbamoyl)benzoate”, for which the Activity with NCI-H157 [10] was found to be 74.5%; in the experiment on NCI-H157 [11], 71.3%; in the experiment on NCI-H157 [12] it was 67.4%; with NCI-H157 [13], 62.7%; in the experiment with Leishmania major [6] it was 72.4%; with Leishmania major [7], 66.3%. In addition, the Activity was 62.5% in the experiment with Leishmania major [8], 60.9% in the experiment with Leishmania major [9] and “Dose-dependent effect” in the experiment with NCI-H157 [26]. In addition, the inhibition zone (IZ) was 15 mm in the experiment with Klebsiella pneumoniae [1]; 10.7 mm with Streptococcus pyogenes; 11 mm in experiment [2]; 10.7 mm with Staphylococcus aureus; 7.66 mm in the experiment on Serratia marcescens [3]; 14.3 mm in the experiment on Pseudomonas aeruginosa [4]. For the same molecule, the inhibition zone (IZ) in the experiment on Escherichia coli [5] was 9 mm. Moreover, the Activity index in the experiment on Klebsiella pneumoniae [14] was determined as 1.07; in the experiment with Klebsiella pneumoniae [15], 2.5; in the experiment with Klebsiella pneumoniae [16], 2.5; in experiment [17] it was 1.1; in [18], 5.5; in the experiment with Serratia marcescens [19] it was 0.96. Further, the Activity index was 0.96 in the experiment on Serratia marcescens [20]; 1.28 with Serratia marcescens [21]; 2.39 in the experiment with Pseudomonas aeruginosa [22]; 2.39 with Pseudomonas aeruginosa [23]; 2.39 with Pseudomonas aeruginosa [24]; 4.5 with Escherichia coli [25].

As for “Dibutylstannanediyl bis 2-(4-methoxy-2-nitrophenylcarbamoyl)benzoate”, the Activity in the experiment on NCI-H157 [10] is 55.5%; with NCI-H157 [11], 52.6%; with NCI-H157 [12] it was 47.4%; in the experiment with NCI-H157 [13], 43.9%; in the experiment on Leishmania major [6] it was 54.2%; in the experiment with Leishmania major [7] it was 50.6%. Besides, the Activity in the experiment on Leishmania major [8] is 49.6%; in the experiment on Leishmania major [9] it was 47.6%; in the experiment with NCI-H157 [26], “Dose-dependent effect”. The inhibition zone (IZ) in the experiment on Klebsiella pneumoniae [1] turned out to be 26 mm; in the experiment with Streptococcus pyogenes it was 6 mm; in [2], 15 mm; in the experiment with Staphylococcus aureus, 24 mm; in the experiment on Serratia marcescens [3], 18.3 mm; with Escherichia coli [5], 19.3 mm. Moreover, the “inhibition zone (IZ)” value in the experiment with Pseudomonas aeruginosa [4] was “inactive”. Also, the Activity index came out at 1.88 with Klebsiella pneumoniae [14]; 4.34 in the experiment with Klebsiella pneumoniae [15]; 4.34 in the experiment on Klebsiella pneumoniae [16]; 1.5 in [17]; 7.5 in experiment [18]; 2.29 in the experiment on Serratia marcescens [19]. Moreover, the Activity index came out at 2.29 in the experiment on Serratia marcescens [20], 3.05 with Serratia marcescens [21] and 9.67 in the experiment with Escherichia coli [25]. Further, the Activity_index entry with Pseudomonas aeruginosa [27] is “inactive”.

In the case of “Triphenylstannyl 2-(4-methoxy-2-nitrophenylcarbamoyl)benzoate”, the Activity in the experiment with NCI-H157 [10] was found to be 61.7%; with NCI-H157 [11] it was 58.4%; in the experiment with NCI-H157 [12], 55.7%; in the experiment with NCI-H157 [13] it was 52.3%; in the experiment with Leishmania major [6], 64.3%; with Leishmania major [7] it was 59.4%. Further, the Activity was 53.6% with Leishmania major [8], 50.7% with Leishmania major [9] and “Dose-dependent effect” in the experiment on NCI-H157 [26]. In addition, the inhibition zone (IZ) in the experiment with Klebsiella pneumoniae [1] amounted to 20.2 mm; in the experiment with Streptococcus pyogenes, 11.7 mm; in [2], 19 mm; in the experiment on Staphylococcus aureus it was 4.66 mm; with Serratia marcescens [3], 4.66 mm; in the experiment on Pseudomonas aeruginosa [4] it was 22.7 mm. The inhibition zone (IZ) with Escherichia coli [5] is 11 mm. Besides, the Activity index in the experiment on Klebsiella pneumoniae [14] was found to be 1.44; with Klebsiella pneumoniae [15] it was 3.37; in the experiment with Klebsiella pneumoniae [16], 3.37; in experiment [17] it was 1.9; in experiment [18], 9.5; in the experiment with Serratia marcescens [19], 0.58. Moreover, the Activity index was 0.58 in the experiment with Serratia marcescens [20]; 0.78 in the experiment with Serratia marcescens [21]; 3.78 with Pseudomonas aeruginosa [22]; 3.78 with Pseudomonas aeruginosa [23]; 3.78 in the experiment with Pseudomonas aeruginosa [24]; 5.5 with Escherichia coli [25].
